Measured values as given in ChEMBL document CHEMBL1129707, “Identification and biological activity of novel peptidomimetic gastrin/CCK-B receptor agonists” (Bioorg Med Chem Lett, 1996).
pIC50: −log10 of the molar value.

Key:
[1] = target: T1, Cholecystokinin receptor type A (Rattus norvegicus, UniProt P30551); assay: Tested for displacement of [3H]-L-364,718 from Cholecystokinin type A receptor in rat pancreas.
T1 sequence (P30551 whole entry): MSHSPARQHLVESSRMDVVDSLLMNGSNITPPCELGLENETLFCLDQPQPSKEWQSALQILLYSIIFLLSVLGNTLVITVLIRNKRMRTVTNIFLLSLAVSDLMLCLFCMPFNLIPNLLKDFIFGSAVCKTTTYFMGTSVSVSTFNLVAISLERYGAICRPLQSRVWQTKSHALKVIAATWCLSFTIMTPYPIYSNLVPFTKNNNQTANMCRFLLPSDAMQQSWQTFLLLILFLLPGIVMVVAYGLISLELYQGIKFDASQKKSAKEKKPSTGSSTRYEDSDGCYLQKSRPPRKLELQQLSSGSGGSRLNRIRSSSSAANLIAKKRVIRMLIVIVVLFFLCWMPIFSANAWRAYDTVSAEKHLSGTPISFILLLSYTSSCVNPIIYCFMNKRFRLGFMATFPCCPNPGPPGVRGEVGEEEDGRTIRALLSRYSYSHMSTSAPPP

[2] = target: T2, Gastrin/cholecystokinin type B receptor (Rattus norvegicus, UniProt P30553); assay: Tested for displacement of [125I]-CCK-8 from Gastrin/Cholecystokinin type B receptor in rat brain.; type: tissue-based
T2 sequence (P30553 whole entry): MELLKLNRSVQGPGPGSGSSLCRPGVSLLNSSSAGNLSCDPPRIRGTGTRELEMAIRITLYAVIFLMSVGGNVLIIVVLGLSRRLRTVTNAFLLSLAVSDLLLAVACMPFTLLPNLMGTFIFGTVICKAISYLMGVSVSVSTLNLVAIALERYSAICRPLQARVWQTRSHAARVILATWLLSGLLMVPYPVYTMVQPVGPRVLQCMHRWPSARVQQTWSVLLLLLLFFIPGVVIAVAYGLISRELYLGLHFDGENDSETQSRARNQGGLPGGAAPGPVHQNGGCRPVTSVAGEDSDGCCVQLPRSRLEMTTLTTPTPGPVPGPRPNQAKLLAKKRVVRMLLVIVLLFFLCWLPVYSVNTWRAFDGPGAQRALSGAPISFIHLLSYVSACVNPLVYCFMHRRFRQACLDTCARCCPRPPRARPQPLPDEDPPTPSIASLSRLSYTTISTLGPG

**Q.** With `CCCC[C@H](NC(=O)Cc1c[nH]c2ccccc12)C(=O)N(CCC1CCCCC1)CC(=O)N1CCCC1` as the compound, how does the pIC50 [1] read?
**A.** < 5.00

**Q.** And the pIC50 [2]?
**A.** 6.84

**Q.** `CC(C)C[C@@H](C(=O)N[C@@H](CC(=O)O)C(=O)N[C@@H](Cc1ccccc1)C(N)=O)N1CC(=O)N[C@H](Cc2c[nH]c3ccccc23)C1=O` was tested. Which pIC50 [2] did it give?
**A.** 7.42

**Q.** How did the pIC50 [1] turn out when `CC(C)(C)OC(=O)N1c2ccccc2C[C@@H]1C(=O)N1[C@@H](C(=O)N2Cc3ccccc3C[C@@H]2C(=O)O)CC[C@H]1c1ccccc1` was run?
**A.** < 5.00

**Q.** And the pIC50 [2]?
**A.** 7.41

**Q.** How did the pIC50 [2] turn out when `CCCC[C@H](NC(=O)Cc1c[nH]c2ccccc12)C(=O)N(CCc1ccccc1)CC(=O)N1CCC[C@H]1C(=O)O` was run?
**A.** 7.47

**Q.** How did the pIC50 [1] turn out when `O=C(Cc1c[nH]c2ccccc12)N[C@@H](CCc1ccccc1)C(=O)N(CCC1CCCCC1)CC(=O)N1CCC[C@H]1C(=O)O` was run?
**A.** < 5.00

**Q.** What about the pIC50 [2] of the same compound?
**A.** 7.77

**Q.** With `CCCC[C@H](NC(=O)Cc1c[nH]c2ccccc12)C(=O)N(CCc1ccccc1)CC(=O)O` as the compound, how does the pIC50 [2] read?
**A.** 6.78

**Q.** How did the pIC50 [2] turn out when `CCC[C@@H]1CCN(C(=O)[C@@H]2Cc3c[nH]c4cccc(c34)CC(=O)N2)[C@@H]1C(=O)N[C@@H](CC(=O)O)C(=O)N[C@@H](Cc1ccccc1)C(N)=O` was run?
**A.** 9.15

**Q.** Which results are given for `O=C(Cc1c[nH]c2ccccc12)N[C@@H](Cc1ccccc1)C(=O)N(CCC1CCCCC1)CC(=O)N1CCC[C@H]1C(=O)O`?
**A.** pIC50 [1]: < 5.00; pIC50 [2]: 9.03

**Q.** `CCCC[C@H](NC(=O)Cc1c[nH]c2ccccc12)C(=O)N(CC(=O)N1CCC[C@H]1C(=O)O)CC1CCCCC1` was tested. Which pIC50 [1] did it give?
**A.** < 5.00

**Q.** What about the pIC50 [2] of the same compound?
**A.** 7.52

**Q.** How did the pIC50 [1] turn out when `CC(C)(C)OC(=O)N1c2ccccc2C[C@@H]1C(=O)N1[C@@H](C(=O)N2Cc3ccccc3C[C@@H]2C(=O)N2CCC[C@@H]2C(=O)O)CC[C@H]1c1ccccc1` was run?
**A.** < 5.00

**Q.** What about the pIC50 [2] of the same compound?
**A.** 7.44

**Q.** What does the source list for `CC(C)(C)OC(=O)N1c2ccccc2C[C@@H]1C(=O)N1[C@@H](C(=O)N2Cc3ccccc3C[C@@H]2CC(=O)O)CC[C@H]1c1ccccc1`?
**A.** pIC50 [1]: < 5.00; pIC50 [2]: 7.46

**Q.** What does the source list for `CC(C)(C)OC(=O)N1c2ccccc2C[C@@H]1C(=O)N1[C@@H](C(=O)N2Cc3ccccc3C[C@@H]2C(=O)NCC(=O)O)CC[C@H]1c1ccccc1`?
**A.** pIC50 [1]: < 5.00; pIC50 [2]: 7.57

**Q.** Which results are given for `CC(C)(C)OC(=O)N1c2ccccc2C[C@@H]1C(=O)N1[C@@H](C(=O)N2Cc3ccccc3C[C@@H]2C(N)=O)CC[C@H]1c1ccccc1`?
**A.** pIC50 [1]: < 5.00; pIC50 [2]: 6.77

**Q.** `CCCC[C@H](NC(=O)Cc1c[nH]c2ccccc12)C(=O)N(CCc1ccccc1)CC(=O)N1CCCC1C(=O)O` (stereo partly specified) was tested. Which pIC50 [2] did it give?
**A.** 6.52

**Q.** What does the source list for `CCCC[C@H](NC(=O)Cc1c[nH]c2ccccc12)C(=O)N(CCC1CCCCC1)CC(=O)O`?
**A.** pIC50 [1]: < 5.00; pIC50 [2]: 6.43

**Q.** `CC(C)(C)OC(=O)N1c2ccccc2C[C@@H]1C(=O)N1[C@@H](C(=O)N2Cc3ccccc3C[C@@H]2C(=O)N2CCCC2C(=O)O)CC[C@H]1c1ccccc1` (stereo partly specified) was tested. Which pIC50 [1] did it give?
**A.** < 5.00

**Q.** And the pIC50 [2]?
**A.** 9.60

**Q.** `CC(C)(C)OC(=O)N1c2ccccc2C[C@@H]1C(=O)N1[C@@H](C(=O)N2CCc3ccccc3C2)CC[C@H]1c1ccccc1` was tested. Which pIC50 [1] did it give?
**A.** < 5.00

**Q.** What about the pIC50 [2] of the same compound?
**A.** 7.28

**Q.** `CCCC[C@H](NC(=O)Cc1c[nH]c2ccccc12)C(=O)N(CCC1CCCCC1)CC(=O)N1CCC[C@H]1C(=O)O` was tested. Which pIC50 [1] did it give?
**A.** < 5.00

**Q.** What about the pIC50 [2] of the same compound?
**A.** 8.64
